1 compound from patent US20210284691A1, “CBX8 CHROMDOMAIN INHIBITORS AND THE USES THEREOF” (Purdue Research Foundation, priority 2019, published 2021) can be followed below.

The structures appear in SMILES notation. Square brackets hold non-standard residues; d marks the D form. Peptide text beside a SMILES is read from it. * marks the point of attachment. Tyr(3-Cl) = N[C@@H](Cc1ccc(O)c(Cl)c1)C(=O)O; Benzoyl(3,5-Cl2) = O=C(c1cc(Cl)cc(Cl)c1)*; Lys(Et2) = CCN(CC)CCCC[C@H](N)C(=O)O; Gly(cPent) = N[C@H](C(=O)O)C1CCCC1; NH(propargyl) = C#CCN*

What all share (assay type): cell-based
The test system of assay [1] is LNCaP_NED cells. Nature of the assay: LNCaP_NED cell proliferation, viability and morphology. An excerpt:
(§1) FIG. 12A). Neuroendocrine differentiation (NED) of prostate cancer induced by androgen deprivation. Representative pictures of LNCaP cells treated with normal media or charcoal-stripped serum (CSS) media for 6 days to induce neuroendocrine differentiation (LNCaP_NED). FIG. 12B). Transcriptional fold changes of KLK3/TMPRSS2/ENO2/CHGA were quantified normalized to control gene YWHAZ upon CSS media treatment for 6 or 9 days. FIG. 12C). Western blotting of CBX paralogs in LNCaP and LNCaP_NED cells generated from 14-day CSS treatment. FIG. 12D). Cell proliferation of LNCaP_NED following 5 days incubation with 2 or 10 μM SW2_152F. DMSO was used as negative control. FIG. 12E). LNCaP_NED cells were treated with 10 μM SW2_152F for 24 h-96 h. Cell morphology pictures were captured starting from 24 h. Average cell size were plotted at 24 h or 48 h for both DMSO group and compound treated group. FIG. 12F). LNCaP_NED cells were treated with 10 μM or 50 μM SW2_152F for 48 hours. Transcriptional fold change of genes (KLK3/TMPRSS2/AR/CBX2) were normalized to YWHAZ in LNCaP_NED cells with SW2_152F treatment or DMSO. FIG. 12G). LNCaP cells were treated with DMSO. LNCaP_NED cells were treated with DMSO, 10 μM GSK343 or 10 μM SW2_152F for 48 hours. Whole cell lysates were extracted for western blotting. FIG. 12H). LNCaP_NED cells were treated with DMSO or 10 μM SW2_152F for 4 hours before harvest. Binding of H3K27me3 and CBX2 at specific genomic sites (KLK3/TMPRSS2, e: enhancer, p: promoter) were evaluated using chromatin immunoprecipitation-qPCR. For all experiments in the figure, error bars represent SEM n=3 biological replicates, p-values were calculated using two-tailed Student's t-test, *=p<0.05, **=p<0.01, ***=p<0.001, ****=p<0.0001.
Cellular Activity of CBX2 Inhibitor in Neuroendocrine Differentiation of Prostate Cancer—Generation of a Prostate Cancer Neuroendocrine Differentiation (NED) System. To generate an in vitro model for NED, we cultured the androgen-sensitive prostate cancer cell line LNCaP in charcoal-stripped serum (CSS), which lacks androgens as well as other steroids. Upon treatment with CSS media, LNCaP cells adopted morphological characteristics of neuroendocrine-like cells (LNCaP_NED), which include dominant nucleus, limited cytoplasm, dendrites (FIG. 12A) and a decreased proliferation rate. To monitor transcriptional changes during androgen deprivation, we quantified the changes in expression of two NED markers (ENO2 and CHGA) and two AR target genes (KLK3 and TMPRSS2) by RT-qPCR during 15 days of androgen deprivation. […] To verify that LNCaP_NED cells become resistant to AR antagonists, we tested the effects of the AR antagonist enzalutamide (ENZA) on cell proliferation.

In assay [2] the test system is H3K27me3, AR, ENO2, N-Myc, CBX2 protein levels. The assay can be described thus: Western blotting of protein expression in VCaP_NED cells.
Text: as §1
In another androgen-sensitive prostate cancer cell line, VCaP, 6 days of androgen deprivation decreases AR protein expression and increases ENO2, N-Myc, H3K27me3 and CBX2 protein expression (FIG. 12G), similar to published findings (Y. Zhang, et al., 2018). Using this NED cell line (VCaP_NED), we tested how addition of EZH2 inhibitor GSK343 or CBX2 inhibitor SW2_152F affects protein expression changes during NED.
In general terms: A western blot detects proteins with antibodies after separation by electrophoresis.

Assay [3] deals with T1, CBX2 bulk chromatin binding (Homo sapiens, UniProt Q14781).
T1 construct: endogenous in cells; host or cells: HEK293T (A21); K562 (A22)
T1 sequence (Q14781 whole entry): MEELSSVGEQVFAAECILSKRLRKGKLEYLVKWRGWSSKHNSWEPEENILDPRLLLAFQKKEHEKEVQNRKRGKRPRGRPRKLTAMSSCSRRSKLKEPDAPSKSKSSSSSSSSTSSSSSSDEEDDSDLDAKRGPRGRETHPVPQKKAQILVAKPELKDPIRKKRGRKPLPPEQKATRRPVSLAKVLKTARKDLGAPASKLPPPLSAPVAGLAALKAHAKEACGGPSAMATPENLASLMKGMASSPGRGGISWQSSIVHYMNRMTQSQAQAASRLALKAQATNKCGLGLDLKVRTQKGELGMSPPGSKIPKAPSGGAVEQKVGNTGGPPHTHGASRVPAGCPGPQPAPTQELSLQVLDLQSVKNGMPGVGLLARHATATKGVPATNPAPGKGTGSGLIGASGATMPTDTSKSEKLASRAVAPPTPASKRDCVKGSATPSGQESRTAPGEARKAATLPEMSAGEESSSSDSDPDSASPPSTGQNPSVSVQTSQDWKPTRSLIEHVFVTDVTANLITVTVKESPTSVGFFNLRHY
The assay can be described thus: Sequential salt extraction (SSE) in HEK293T cells. To be noted: 10 μM.

In assay [4] the target is T2, CBX2 binding to chromatin (Homo sapiens, UniProt Q14781).
T2 construct: endogenous in cells; host or cells: HEK293T (A21); K562 (A22)
T2 sequence (Q14781 whole entry): as above
The assay can be described thus: ChIP-qPCR in K562 cells. The method, then:
FIGS. 11A-11E: Cellular Activity of CBX2 ChD Ligand. FIG. 11A) Relative cytosolic access of SW2_152F conjugated to a chloroalkane (SW2_152F-CA, SEQ ID NO: 28) was evaluated using chloroalkane penetration assay (CAPA). The half maximal cell penetration value (CP50) of SW2_152F-CA was determined for SW2_152F-CA and CBX8 inhibitor SW2_110A-CA. FIG. 11B) Chemoprecipitations from HEK293T nuclear lysates using biotinylated SW2_152F (SW2_152F-B, SEQ ID NO: 29) were analyzed using immunoblot analysis. FIG. 11C) Analysis and quantification of SW2_152F in abrogating bulk binding of endogenous CBX proteins to chromatin in HEK293T cells by Sequential Salt Extraction. FIG. 11D). Chromatin immunoprecipitation (ChIP) from K562 cells using antibodies against IgG, H3K27me3, CBX2 and CBX8 was followed by quantitative PCR of genomic regions near Tm9SF4 (negative locus), TCF21, Fyn-2, and PAX7. Cells were treated with 10 μM SW2_152F for 4 h prior to harvest. FIG. 11E) Chromatin immunoprecipitation (ChIP) in Hs68 fibroblast cells using antibodies against IgG, CBX7, and CBX8 followed by quantitative PCR of genomic regions at LMNB2 (negative locus), CCND2, and RUNX3. Cells were treated with 100 μM SW2_152F for 4 h prior to harvest. For all qPCR, error bars represent SEM n=3 biological replicates, p-values were calculated using two-tailed Student's t-test, * p<0.05, **=p<0.01, ***=p<0.001, ****=p<0.0001.
ChIP-qPCR. After validating selectivity using lysate and bulk chromatin, we wanted to determine whether the inhibitor can disrupt CBX2 binding to chromatin in live cells. We used chromatin immunoprecipitation (ChIP) followed by quantitative PCR (ChIP-qPCR) of sites with CBX2, CBX8 and H3K27me3 enrichment in K562 ChIP-Seq datasets in ENCODE (M. Azkanaz, et al., Elife 2019). We evaluated effects of compound treatment at both 10 μM and 100 μM SW2_152F. […] In order to evaluate SW2_152F activity against a paralog with no binding to SW2_152F in vitro, CBX7 ChIP-qPCR was performed in Hs68 fibroblast cells, which have no detectable CBX2 expression (H. Pemberton, et al., Genome Biol. 2014).

`C#CCNC(=O)[C@H](CO)NC(=O)[C@H](CCCCN(CC)CC)NC(=O)[C@@H](NC(=O)[C@@H](NC(=O)[C@H](Cc1ccc(O)c(Cl)c1)NC(=O)c1cc(Cl)cc(Cl)c1)C1CCCC1)[C@@H](C)CC` [SW2_152F] ({Benzoyl(3,5-Cl2)}-[Tyr(3-Cl)][Gly(cPent)]I[Lys(Et2)]S-{NH(propargyl)}): the “cell size and dendrites of LNCaP_NED cells” value in assay [1] (10 μM, 24 h or 48 h) is “significantly decreased average cell size and reduced dendrites”. Also, in assay [1] (2 or 10 μM, 5 days), the LNCaP_NED cell proliferation entry is “significantly inhibited LNCaP_NED cell proliferation”. Also, in assay [1] (both compounds, 4 days, compared to either alone), the “LNCaP_NED cell viability, combination with ENZA” value is reported as “significantly decreased”. The H3K27me3 levels result in assay [2] (10 μM, 48 hours) was “does not”. Also, the “AR, ENO2 and N-Myc expression” value in assay [2] (compared to DMSO) was “increase AR and decrease ENO2 and N-Myc expression”. Besides, in assay [3], the “CBX2 binding to chromatin, SSE” value is recorded as “dramatically abrogated CBX2 binding to chromatin”. The “CBX2 binding, ChIP-qPCR” value in assay [4] (10 μM, 4 h) is “significant reduction of CBX2 binding”; in assay [4] (100 μM) it was “significant reduction of both CBX2 and CBX8 binding”.
